Target: T1, AsfvPolX (ASFV DNA Polymerase X) (African swine fever virus BA71V, UniProt P42494)
T1 construct: gene Ba71V-97
Test: biochemical
Type: binding
Conditions: for AsfvPolX: no DNA stated, buffer, metal and temperature not stated

T1 sequence (P42494 whole entry, looked up): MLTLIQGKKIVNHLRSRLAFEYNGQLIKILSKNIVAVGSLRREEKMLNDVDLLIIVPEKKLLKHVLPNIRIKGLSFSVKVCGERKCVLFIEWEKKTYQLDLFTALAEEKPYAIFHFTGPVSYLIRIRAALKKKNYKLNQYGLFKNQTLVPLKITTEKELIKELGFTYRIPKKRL

| Compound | Kd [µM] | other results |
| --- | --- | --- |
| Nc1ncnc2c1ncn2[C@H]1C[C@H](O)[C@@H](COP(=O)(O)OP(=O)(O)OP(=O)(O)O)O1 [dATP] | – | AsfvPolX: 0.66 ± 0.05 µM |
| Nc1ccn([C@H]2C[C@H](O)[C@@H](COP(=O)(O)OP(=O)(O)OP(=O)(O)O)O2)c(=O)n1 [dCTP] | 6.85 ± 0.55 | – |
| Nc1nc2c(ncn2[C@H]2C[C@H](O)[C@@H](COP(=O)(O)OP(=O)(O)OP(=O)(O)O)O2)c(=O)[nH]1 [dGTP] | – | AsfvPolX (structures are ternary complexes with gap(P) DNA and Mn2+): 0.37+0.02 μM |
| Cc1cn([C@H]2C[C@H](O)[C@@H](COP(=O)(O)OP(=O)(O)OP(=O)(O)O)O2)c(=O)[nH]c1=O [dTTP] | 9.09 ± 0.89 | – |

Source: publication PMC5330486 (PLoS Biology, 2017)
